The values below come from patent US12570647B2 (Saint Louis University, priority 2021, dated 2026).

In general, MIC80 refers to an inhibitory concentration at the 80% level, which refers to growth in some studies and to a panel of isolates in others.

Converted amounts (≈) assume the structure as drawn. Like-named read-outs stand apart in the source and are kept apart here. Some results are limits rather than exact numbers.

Experiment [1] has as its system S. aureus ATCC25923. In words: S. aureus MIC80 determination, broth microdilution (CLSI) in CAMHB. Format: cell-based. The note with it: S. aureus ATCC 25923. On the procedure: (§1) S. Aureus MIC80 determinations in S. aureus ATCC25923 or in multidrug-resistant strains AR215, AR217 and AR255. MIC80's were determined by the broth microdilution method recommended by the Clinical and Laboratory Standards Institute (CLSI) in Cation-adjusted Mueller-Hinton broth (CAMHB). (Cao et al., 2018). In the preliminary screening, three compound concentrations were used: 5.8, 20.4, and 71.4 μM; for quantitative MIC80 measurements, a 1.5-fold dilution series of the compounds was prepared in CAMHB. Overnight bacterial culture was added to the diluted compounds in a 96-well plate after adjusting the bacterial concentration to achieve a 5×10^5 CFU/mL final concentration. After 16-24 h incubation at 35±2° C., the plates were read at 600 nm in a microplate reader. The MIC80 was defined as the concentration of an antibacterial agent that inhibited bacteria growth ≥80% compared to vehicle-treated control cultures. All values were determined at least twice independently, and the average number is reported.

The test system of experiment [2] is S. aureus AR215 (MRSA, multidrug-resistant strain). Described as above. It counts as cell-based. Conditions: Table 2. As for the experimental part:
as §1
(§2) AR215, AR217, and AR222 were obtained from the Centers for Disease Control and Prevention (CDC). AR215 and AR217 are cefoxitin-screen positive (resistant to cefoxitin) and resistant to oxacillin, which are MRSA strains. AR215 is also resistant to clindamycin, erythromycin, levofloxacin, and penicillin. AR217 is also resistant to levofloxacin, penicillin, and Trimethoprim-sulfamethoxazole. AR222 is only resistant to penicillin.

The subject of experiment [3] is S. aureus AR217 (MRSA, multidrug-resistant strain). The experiment is described as above. Format: cell-based. Conditions: Table 2. As for the experimental part: as §1, §2
Experiment [4] has as its system S. aureus AR222. The description is as above. It counts as cell-based. The note with it: Table 2. On the procedure: as §1, §2
The test system of experiment [5] is S. aureus ATCC 25923. Details: key: R: resistance; S: sensitive; I: intermediate. Conditions: Table 2; cited from earlier work.
For experiment [6], the system named is S. aureus AR215. Details: key to Antibiotic susceptibility (R/S/I): R: resistance; S: sensitive; I: intermediate. Conditions: Table 2; S. aureus AR215 (CDC strain); cited from earlier work.
Experiment [7] deals with S. aureus AR217. Also on record: key to Antibiotic susceptibility (R/S/I): R: resistance; S: sensitive; I: intermediate. The note with it: Table 2; S. aureus AR217 (CDC strain); cited from earlier work.
Experiment [8] relates to S. aureus AR222. Details: key to Antibiotic susceptibility (R/S/I): R: resistance; S: sensitive; I: intermediate. The note with it: Table 2; S. aureus AR222 (CDC strain); cited from earlier work.
[9] abbreviates: Staphylococcus aureus, ATCC25923, Table 1, growth inhibition ≥80% vs vehicle, 16-24 h, read-out: ATCC 25923 MIC80.
Where [10] appears, read: Staphylococcus aureus, ATCC25923, Table 2, read-out: MIC80.

Consider `Cc1ccc(C(=O)N(CCCn2ccnc2)c2nc3c(C)cc(Cl)cc3s2)o1` [Example 4, N-(3-(1H-imidazol-1-yl)propyl)-N-(6-chloro-4-methylbenzo[d]thiazol-2-yl)-5-methylfuran-2-carboxamide], for which the MIC80 in experiment [1] (setting [9]) stood at 2.6 µM (≈ 1.08 µg/mL); in experiment [1] (setting [10]), 0.78 µM (≈ 0.324 µg/mL); in experiment [2] (Staphylococcus aureus, MRSA), 8.9 µM (≈ 3.69 µg/mL); in experiment [3] (Staphylococcus aureus, MRSA), 5.9 µM (≈ 2.45 µg/mL); in experiment [4] (Staphylococcus aureus), 0.78 µM (≈ 0.324 µg/mL).
Take `Cc1ccoc1C(=O)N(CCCn1ccnc1)c1nc2c(C)cc(Cl)cc2s1` [Example 15, N-(3-(1H-imidazol-1-yl)propyl)-N-(6-chloro-4-methylbenzo[d]thiazol-2-yl)-3-methylfuran-2-carboxamide]: the MIC80 in experiment [1] (setting [9]) was below 1.7 µM; in experiment [1] (setting [10]), 1.8 µM (≈ 0.747 µg/mL); in experiment [2] (Staphylococcus aureus, MRSA), 13.3 µM (≈ 5.52 µg/mL); in experiment [3] (Staphylococcus aureus, MRSA), 4 µM (≈ 1.66 µg/mL); in experiment [4] (Staphylococcus aureus) it was 2.6 µM (≈ 1.08 µg/mL).
As for Gentamicin, the “Antibiotic susceptibility (R/S/I)” value in experiment [5], in experiment [6], in experiment [7] and in experiment [8] was “S” throughout.
Consider clorofloxacin [reference compound], for which the MIC80 in experiment [1] (Table 2, read-out: MIC80) was 40.52 µM; in experiment [2], “.66 µM”; in experiment [3], “.30 µM”; in experiment [4] it was 0.52 µM.
